LD50 and ED50 data for two compounds are collected here from EP0170430A1, “Heterocyclic pharmaceutical compounds, preparation and use” (THE WELLCOME FOUNDATION LIMITED, priority 1984, dated 1986).

Each structure is given as a SMILES string. Structures can show the parent of a compound that is named as a salt.

Series [1] can be described thus: Acute toxicity (LD50). The settings on record: in vivo, ip, in the mouse, calculated as the hydrochloride salt.
The test system of series [2] is tetrabenazine induced sedation. Briefly: Antitetrabenazine test (prevention of tetrabenazine induced sedation). Format: in vivo. The settings on record: Mus musculus; CD1 male mice; compound ip 30 min before tetrabenazine hydrochloride ip; exploratory behavior scored 30 min later; amount required to reverse the tetrabenazine effects in 50 percent of the animals. How it is done:
Prevention of tetrabenazine induced sedation was measured using a modification of the method of Vernier, et al., First Hahnemann Symposium on Psychosomatic Medicine, ed. Nodim and Moyer, pub. Lea and Febiger, Philadelphia, 1962.
Mice, three groups of 12 CD1 males each, were injected intraperitoneally (ip) with a solution of compound (IA) or compound (IB) or with a saline solution alone. Thirty minutes later each of the mice was injected (ip, 35 mg/kg) with a solution containing tetrabenazine hydrochloride. Thirty minutes after the injection of tetrabenazine each mouse was examined for its level of exploratory behavior which was scored on a modification of the arbitrary scale defined by Vernier, et. al. The results reported in Table as the ED50 values are the amounts of the test compounds required to reverse the tetrabenazine effects in 50 percent of the animals tested.

Regarding `C[C@@H]1NC(C)(C)CO[C@@]1(O)c1ccccc1` (relative stereo) [IA, cis-3,5,5-Trimethyl-2-phenyl-2-morpholinol hydrochloride], the LD50 (as a rule, the dose at which mortality reaches 50%) in series [1] is around 160 mg/kg. Also, it took a dose of 18 mg/kg to reach the 50% effect level in series [2] (ED50).
With `C[C@@H]1NC(C)(C)CO[C@@]1(O)c1ccc(F)cc1` (relative stereo) [IB, cis-2-(4-Fluorophenyl)-3,5,5-trimethyl-2-morpholinol hydrochloride], the median lethal dose (LD50) in series [1] is around 160 mg/kg. Also, the 50% effect level in series [2] (ED50) was put at a dose of 14 mg/kg.
